Results taken from patent US20100285959A1, “HERBICIDAL MIXTURES” (priority 2006, published 2010).

Key:
[1] = system: common lambsquarters (CHEAL); experiment: Test 21 growth chamber, postemergence; assay type: in vivo, Chenopodium album; conditions: 19 DAA
Method: (§1) A test was conducted to evaluate the effects on winter barley (HORVW, Hordeum vulgare L.), winter wheat (TRZAW, Triticum aestivum L.), and several weed species, of mixtures of Compound 2 with the commercial herbicide (2,4-dichlorophenoxy)acetic acid (2,4-D), an auxin mimic. […] Plants were treated postemergence at the 2-4 leaf growth stage, and each treatment was replicated one time. […] Plants were watered as needed. […] Results are from single replicates.

[2] = system: Russian thistle (SASKR); experiment: Test 21 growth chamber, postemergence; assay type: in vivo, Salsola kali; conditions: 19 DAA
Method: as §1

[3] = system: common lambsquarters (CHEAL); experiment: Test 23 growth chamber, postemergence; assay type: in vivo, Chenopodium album; conditions: 21 DAA
Method: A test was conducted to evaluate the effects on winter barley (HORVW, Hordeum vulgare L.), winter wheat (TRZAW, Triticum aestivum L.), and several weed species of mixtures of Compound 2 with the commercial herbicides (2,4-dichlorophenoxy)acetic acid (2,4-D) and (4-chloro-2-methylphenoxy)acetic acid (MCPA), auxin mimics. […] Plants were treated postemergence at the 2-4 leaf growth stage, and each treatment was replicated three times. […] Plants were watered as needed. […] Results are means of the three replicates.

[4] = system: giant ragweed (AMBTR); experiment: Test 2 field trial, preemergence; assay type: in vivo, Ambrosia trifida; design: scale not given here
Excerpt: (§2) Corn seeds (hybrid ‘Pioneer 31G96’) were planted in mid spring season, 3.8 cm deep in a clay loam soil having 2% organic matter and a pH of 6.6. Plots were 6.1 m long by 3.0 m wide with rows spaced 76 cm apart. Seeds were spaced 15 cm apart within the rows. The field was managed using conventional tillage practices. […] A few of the weed species could not be evaluated at every timing. […] Results are the means of the three replicates.

[5] = system: velvetleaf (ABUTH); experiment: Test 2 field trial, preemergence; assay type: in vivo, Abutilon theophrasti; design: scale not given here
Excerpt: as §2

[6] = system: yellow nutsedge (CYPES); experiment: Test 2 field trial, preemergence; assay type: in vivo, Cyperus esculentus; design: scale not given here
Excerpt: as §2

[7] = system: wheat (TRZAW); experiment: Test 30 growth chamber, postemergence; assay type: in vivo, Triticum aestivum
Method: A growth chamber test was conducted to evaluate the effects on the plant species wheat (TRZAW, Triticum aestivum L.) and barley (HORVX, Hordeum vulgare L.) with mixtures of Compound 1 and Compound 2 with glycerol. Wheat and barley seeds were planted in a sandy loam soil having 0.9% organic matter and a pH of 6.3. […] Wheat and barley plants were treated postemergence at the two leaf growth stage for Compound 1 and at the three leaf growth stage for Compound 2. Each treatment was replicated one time. […] Plants were watered as needed. […] Colby's Equation was used to determine herbicidal effects expected from the mixtures.

[8] = system: common lambsquarters (CHEAL); experiment: Test 3 field trial, emerged weeds before corn planting; assay type: in vivo, Chenopodium album; conditions: 68 DAA; Cpd 2 100, glyphosate 1540, paraquat 1150 g a.i./ha, alone or combined
Excerpt: Corn seeds (hybrid ‘Pioneer 33J56’) were planted in early spring season, 3.8 cm deep in a silt loam soil having 2.4% organic matter and a pH of 6. Plots were 6.1 m long by 2.7 m wide with rows spaced 91.4 cm apart. The field was managed using no-till practices. […] Compound 2 and paraquat treatments, alone and in combination, also included a surfactant. Glyphosate, alone and with Compound 2, included ammonium sulfate in the treatment mixture. […] The effects on the weeds in the treated plots and untreated control plots were recorded 30, 42, 46 and 68 days after application. Most of the weed species could not be evaluated at every timing. Corn response was not evaluated because the growth was highly variable depending on the efficacy of the weed control treatments. […] Results are the means of the three replicates.

[9] = 18 DAA, g a.i./ha: Cpd 2 25, Atrazine 250
[10] = 18 DAA, g a.i./ha: Cpd 2 50, Atrazine 500
[11] = 18 DAA, g a.i./ha: Cpd 2 75, Atrazine 750
[12] = 18 DAA, g a.i./ha: Cpd 2 100, Atrazine 1000
[13] = 28 DAA, g a.i./ha: Cpd 2 25, Atrazine 250
[14] = 28 DAA, g a.i./ha: Cpd 2 50, Atrazine 500
[15] = 28 DAA, g a.i./ha: Cpd 2 75, Atrazine 750
[16] = 18 DAA, g a.i./ha: Cpd 2 150, Atrazine 1500
[17] = 28 DAA, g a.i./ha: Cpd 2 100, Atrazine 1000
[18] = 28 DAA, g a.i./ha: Cpd 2 150, Atrazine 1500
[19] = 55 DAA, g a.i./ha: Cpd 2 25, Atrazine 250
[20] = 55 DAA, g a.i./ha: Cpd 2 50, Atrazine 500
[21] = 55 DAA, g a.i./ha: Cpd 2 75, Atrazine 750
[22] = 55 DAA, g a.i./ha: Cpd 2 100, Atrazine 1000
[23] = 55 DAA, g a.i./ha: Cpd 2 150, Atrazine 1500

O=C(O)COc1ccc(Cl)cc1Cl [2,4-D, (2,4-dichlorophenoxy)acetic acid]
Postemergence CHEAL Obs ([1]; 2,4-D alone 125 g a.i./ha): 40
Postemergence CHEAL Obs ([1]; 2,4-D alone 250 g a.i./ha): 40
Postemergence SASKR Obs ([2]; 2,4-D alone 125 g a.i./ha): 60
Postemergence SASKR Obs ([2]; 2,4-D alone 250 g a.i./ha): 55
Postemergence CHEAL Obs ([3]; 2,4-D or MCPA alone 250 g a.i./ha): 58

CCNc1nc(Cl)nc(NC(C)C)n1 [Atrazine, atrazine, reference compound]
AMBTR Obs [4, 9]: 0
AMBTR Obs [4, 10]: 30
AMBTR Obs [4, 11]: 75
AMBTR Obs [4, 12]: 20
AMBTR Obs [4, 13]: 10
AMBTR Obs [4, 14]: 5
AMBTR Obs [4, 15]: 65
ABUTH Obs [5, 9]: 15
ABUTH Obs [5, 10]: 45
ABUTH Obs [5, 11]: 55
ABUTH Obs [5, 12]: 62
ABUTH Obs [5, 16]: 64
ABUTH Obs [5, 13]: 37
ABUTH Obs [5, 14]: 78
ABUTH Obs [5, 15]: 85
ABUTH Obs [5, 17]: 98
ABUTH Obs [5, 18]: 99
ABUTH Obs [5, 19]: 68
ABUTH Obs [5, 20]: 63
ABUTH Obs [5, 21]: 87
ABUTH Obs [5, 22]: 100
ABUTH Obs [5, 23]: 99
CYPES Obs [6, 9]: 13
CYPES Obs [6, 10]: 18
CYPES Obs [6, 11]: 40
CYPES Obs [6, 12]: 28
CYPES Obs [6, 16]: 27
CYPES Obs [6, 13]: 0
CYPES Obs [6, 14]: 5
CYPES Obs [6, 15]: 0
CYPES Obs [6, 17]: 2
CYPES Obs [6, 18]: 0
CYPES Obs [6, 19]: 10
CYPES Obs [6, 20]: 13
CYPES Obs [6, 21]: 0
CYPES Obs [6, 22]: 62
CYPES Obs [6, 23]: 60

Nc1nc(C2CC2)nc(C(=O)O)c1Cl [Compound 1, 6-amino-5-chloro-2-cyclopropyl-4-pyrimidinecarboxylic acid]
TRZAW Obs ([7]; 18 DAA, Cpd 1 1 g a.i./ha): 30%
TRZAW Obs ([7]; 18 DAA, Cpd 1 4 g a.i./ha): 35%
TRZAW Obs ([7]; 18 DAA, Cpd 1 16 g a.i./ha): 45%

COC(=O)c1nc(C2CC2)nc(N)c1Cl [Compound 2, methyl 6-amino-5-chloro-2-cyclopropyl-4-pyrimidinecarboxylate]
Postemergence CHEAL Obs ([1]; Cpd 2 alone 16 g a.i./ha): 60
AMBTR Obs [4, 9]: 10
AMBTR Obs [4, 10]: 30
AMBTR Obs [4, 11]: 10
AMBTR Obs [4, 12]: 45
AMBTR Obs [4, 16]: 65
AMBTR Obs [4, 13]: 35
AMBTR Obs [4, 14]: 30
AMBTR Obs [4, 15]: 75
AMBTR Obs [4, 17]: 70
Postemergence SASKR Obs ([2]; Cpd 2 alone 16 g a.i./ha): 65
CHEAL Obs [8]: 100%
TRZAW Obs ([7]; 17 DAA, Cpd 2 1 g a.i./ha): 20%
TRZAW Obs ([7]; 17 DAA, Cpd 2 4 g a.i./ha): 20%
TRZAW Obs ([7]; 17 DAA, Cpd 2 16 g a.i./ha): 35%
ABUTH Obs [5, 9]: 13
ABUTH Obs [5, 10]: 28
ABUTH Obs [5, 11]: 45
ABUTH Obs [5, 12]: 45
ABUTH Obs [5, 16]: 52
ABUTH Obs [5, 13]: 13
ABUTH Obs [5, 14]: 18
ABUTH Obs [5, 15]: 65
ABUTH Obs [5, 17]: 63
ABUTH Obs [5, 18]: 73
ABUTH Obs [5, 19]: 38
ABUTH Obs [5, 20]: 55
ABUTH Obs [5, 21]: 63
ABUTH Obs [5, 22]: 68
ABUTH Obs [5, 23]: 78
Postemergence CHEAL Obs ([3]; Cpd 2 alone 4 g a.i./ha): 53
Postemergence CHEAL Obs ([3]; Cpd 2 alone 8 g a.i./ha): 55
Postemergence CHEAL Obs ([3]; Cpd 2 alone 16 g a.i./ha): 55
CYPES Obs [6, 9]: 12
CYPES Obs [6, 10]: 18
CYPES Obs [6, 11]: 22
CYPES Obs [6, 12]: 25
CYPES Obs [6, 16]: 30
CYPES Obs [6, 13]: 0
CYPES Obs [6, 14]: 0
CYPES Obs [6, 15]: 0
CYPES Obs [6, 17]: 0
CYPES Obs [6, 18]: 0
CYPES Obs [6, 19]: 0
CYPES Obs [6, 20]: 0
CYPES Obs [6, 21]: 0
CYPES Obs [6, 22]: 0
CYPES Obs [6, 23]: 10

O=C(O)CNCP(=O)(O)O [Glyphosate]
CHEAL Obs [8]: 0%
